Results from patent EP4656630A1, “NOVEL COMPOUND AS LYSYL-TRNA SYNTHETASE 1 INHIBITOR, AND USE THEREOF” (Zymedi Co., Ltd., priority 2023, dated 2024).

Columns and labels:
[1] = test system: Raw 264.7 cells; test: LN (Laminin 421)-induced immune cell migration, Transwell; type: cell-based; conditions: Mus musculus, RAW264.7; 3 µM compound, LN (Laminin 421 1 µg/ml), 24 hours, % inhibition compared to control group; read-out: Migration inhibitor % (3uM)
Description: Cell migration was assessed based on the method described in the prior literature (Park, S. G. et al. Human lysyl-tRNA synthetase is secreted to trigger proinflammatory response. Proceedings of the National Academy of Sciences, 2005, 102.18: 6356-6361.). The specific experimental method is as follows. A Transwell (Corning#3421-5µm pore) was coated with gelatin (0.5mg/ml), and then Raw 264.7 cells (1 x 10^5 cells/well) were seeded in the upper chamber. Serum-free medium (Serum Free DMEM, 500 µl) containing LN (Laminin 421 1 µg/ml) was added to the lower chamber. Each compound was treated at a concentration of 3µM in the upper chamber. After 24 hours, the cells were fixed with 70% methanol for 30 minutes and stained with 50% hematoxylin for 30 minutes. Non-migrating cells on the upper side of the membrane were removed with a cotton swab, and the membrane was mounted on a slide. Migrating cells on the lower side of the membrane were observed under a high-power microscope, and the number of cells was measured from the obtained images and expressed as the inhibition rate (% inhibition) compared to the control group.

[2] = test system: Raw264.7 cells; test: KARS1-induced trans-migration assay; type: cell-based, mouse; conditions: for inhibition at 1 µM: 1 µM compound, read-out: KARS1-induced Raw264.7 cell migration (% inhibition, 1uM)
Description: C0001 inhibits the binding of KARS1 and 67LR, thereby blocking the migration of monocytes/macrophages and suppressing inflammation. Accordingly, a trans-migration assay using mouse macrophages (Raw264.7) was conducted to preliminarily screen drugs that inhibit the migration of monocytes/macrophages.
Based on this, when KARS1 protein was directly treated externally instead of LN, the trans-migration of Raw264.7 was induced, and the cell migration inhibitory effect of the KARS1 inhibitor C0001 was confirmed. It was verified that C0001, which specifically binds to KARS1, can inhibit cell migration by binding to extracellular KARS1, in addition to the mechanism of inhibiting cell membrane migration of KARS1 induced by laminin and its binding to 67LR, thereby enabling this analysis to be used as a direct method for evaluating in vitro activity against KARS1.
Next, preliminary candidate substances with high inhibitory activity at 1 µM were treated at concentrations of 0.1~4 µM for analysis.

Row | SMILES | inhibition at 3 µM [1] [%] | inhibition at 1 µM ([2]; Mus musculus, RAW264.7) [%] | times higher activity compared to C0001 ([2]; EC50, KARS1-induced cell migration) | EC50 ([2]; Mus musculus, RAW264.7, KARS1-induced cell migration, 0.1~4 µM) [nM]
1 | COc1ccc(CCN(Cc2nc3cc(C(=O)O)ccc3o2)c2nc3cccc(F)c3s2)cc1 [Compound 28, 2-(((7-fluorobenzo[d]thiazol-2-yl)(4-methoxyphenethyl)amino)-methyl)benzo[d]oxazole-5-carboxylic acid] | 16.4 | 43.2 |  | 
2 | COc1ccc(CCN(Cc2ccc3c(c2)CNC3)c2nc3cccc(F)c3s2)cc1 [Compound 29, 7-fluoro-N-(isoindolin-5-ylmethyl)-N-(4-methoxyphenethyl)benzo-[d]thiazol-2-amine] | 33 | 4.1 |  | 
3 | COc1ccc(CCN(Cc2ccc3c(c2)CN(S(N)(=O)=O)C3)c2nc3cccc(F)c3s2)cc1 [Compound 31, 5-(((7-fluorobenzo[d]thiazol-2-yl)(4-methoxyphenethyl)amino)-methyl)isoindoline-2-sulfonamide] | 72.8 | 28.3 |  | 
4 | COc1ccc(CCN(Cc2ccc(-n3ccc(C(=O)O)c3)cc2)c2nc3cccc(F)c3s2)cc1 [Compound 34, 1-(4-(((7-fluorobenzo[d]thiazol-2-yl)(4-methoxyphenethyl)amino)-methyl)phenyl)-1H-pyrrole-3-carboxylic acid] | 13 | 99.4 |  | 
5 | COc1ccc(CCN(Cc2ccc(C3(C(=O)O)CCC3)cc2)c2nc3cccc(F)c3s2)cc1 [Compound 36, 1-(4-(((7-fluorobenzo[d]thiazol-2-yl)(4-methoxyphenethyl)amino)-methyl)phenyl)cyclobutane-1-carboxylic acid] | 21.8 | 96.8 |  | 
6 | COc1ccc(CCN(Cc2ccc(N3CC[C@@H](C(=O)O)C3)cc2)c2nc3ccccc3o2)cc1 [Compound 37, (R)-1-(4-((benzo[d]oxazol-2-yl(4-methoxyphenethyl)amino)methyl)-phenyl)pyrrolidine-3-carboxylic acid] | 19.3 | 50.6 |  | 
7 | COc1ccc(CCN(Cc2ccc(N3CC[C@H](C(=O)O)C3)cc2)c2nc3ccccc3o2)cc1 [Compound 38, (S)-1-(4-((benzo[d]oxazol-2-yl(4-methoxyphenethyl)amino)methyl)-phenyl)pyrrolidine-3-carboxylic acid] | 15.3 | 40.4 |  | 
8 | COc1ccc(CCN(Cc2ccc(C#CC(=O)O)cc2)c2nc3cccnc3o2)cc1 [Compound 44, 3-(4-(((4-methoxyphenethyl)(oxazolo[5,4-b]pyridin-2-yl)amino)-methyl)phenyl)propiolic acid] | 1.1 |  |  | 
9 | COc1ccc(CCN(Cc2ccc(N3CCC(C(=O)O)CC3)cc2)c2nc3cccc(F)c3s2)cc1 [Compound 46, 1-(4-(((7-fluorobenzo[d]thiazol-2-yl)(4-methoxyphenethyl)amino)-methyl)phenyl)piperidine-4-carboxylic acid] |  | 90.9 |  | 
10 | COc1ccc(CCN(Cc2ccc(-n3cc(C(=O)O)cn3)cc2)c2nc3cccc(F)c3s2)cc1 [Compound 47, 1-(4-(((7-fluorobenzo[d]thiazol-2-yl)(4-methoxyphenethyl)amino)-methyl)phenyl)-1H-pyrazole-4-carboxylic acid] |  | 99.7 | approximately 10 times | 80
11 | NC(=O)c1ccc(CCN(Cc2ccc(N3CC[C@H](C(=O)O)C3)cc2)c2nc3cccc(F)c3s2)cc1 [Compound 48, (S)-1-(4-(((4-carbamoylphenethyl)(7-fluorobenzo[d]thiazol-2-yl)amino)methyl)phenyl)pyrrolidine-3-carboxylic acid] |  | 36.6 |  | 
12 | O=C(O)[C@H]1CCN(c2ccc(CN(CCn3ccccc3=O)c3nc4cccc(F)c4s3)cc2)C1 [Compound 49, (S)-1-(4-(((7-fluorobenzo[d]thiazol-2-yl)(2-(2-oxopyridin-1(2H)-yl)ethyl)amino)methyl)phenyl)pyrrolidine-3-carboxylic acid] |  | 34.8 |  | 
